Test results: patent US20100105745A1, “Suppression of cancer and method for evaluating anticancer agent based on the effect of inhibiting gsk3 beta” (priority 2005, published 2010)

Experiments:
[1] = test system: Colon cancer cell lines (SW480 and HCT116); test: MTS viable cell assay (cell survival); format: cell-based, human; conditions: 5, 10, 25, and 50 μM, 24-96 hours, FIG. 4A
Method: (§1) Each colon cancer cell line and HEK293 cells were seeded at 3×10^3 cells per well of 96-well culture plates and then cultured overnight in corresponding media (this day was designated day 0). Known GSK3β inhibitors, AR-A014418 (N-(4-methoxybenzyl)-N′-(5-nitro-1,3-thiazol-2-yl)urea, Calbiochem) and SB-216763 (3-(2,4-dichlorophenyl)-4-(1-methyl-1H-indol-3-yl)-1H-pyrrole-2,5-dione, Sigma-Aldrich) were dissolved in dimethyl sulfoxide (DMSO). On day 0, the medium for each cell line were exchanged and then AR-A014418 or SB-216763 was added to the medium to different concentrations (5, 10, 25, and 50 μM). As controls, samples prepared by adding AR-A014418 or SB-216763 to the same concentrations to wells containing no cells and a sample prepared by adding DMSO alone to a well containing cells were analyzed simultaneously.
(§2) At time points after indicated lengths of the times (24, 48, 72, and 96 hours) had elapsed from day 0, the number of viable cells in each well was measured using an MTS* viable cell measurement kit (CellTiter 96™ Aqueous, Promega Corp) in accordance with the protocols of Promega. Practically, 20 μL of an MTS mixture solution that had been prepared immediately before addition was added to each well, followed by three hours of reaction at 37° C. under 5% CO2 wet conditions. Absorbance at a wavelength of 490 nm was measured using a THERMOmax microplate reader (Molecular Devices). The number of cells of each cell line (in 6 wells for treatment by each concentration of AR-A014418 or SB-216763) was measured, and the average absorbance was calculated to determine the number of viable cells.

HEK293 cells [2] = test: MTS viable cell assay (cell survival); format: cell-based, human; conditions: FIG. 4A
Method: as §1, §2

HEK293 cells [3] = test: Apoptosis (Hoechst staining) and proliferation (PCNA labeling index) by double staining; format: cell-based, human; conditions: for changes in apoptosis frequency: FIG. 4C; for changes in cellular proliferation rates (PCNA labeling index): FIG. 4D
Method: (§3) A, B, and E: The number of viable cells in each well as measured by MTS assay at points in time at which the indicated lengths of the time (24, 48, 72, and 96 hours) had elapsed since day 0. C and D: The proportion (D) of proliferating cells' nuclei (PCNA positive) in all the cells observed or the proportion (C) of nuclei undergoing apoptosis in all the cells observed when the cells were subjected to double staining by an immunofluorescence method using an anti-PCNA (proliferating cell nuclear antigen) antibody and Hoechst and then observed under a fluorescence microscope.

colon cancer cells = test: as above; format: cell-based, human; conditions: for cellular proliferation rates (PCNA labeling index): FIG. 4D; for apoptosis frequency: Hoechst staining, FIG. 4C
Method: as §3

[4] = test system: glioblastoma cell line (A172, T98G, U251, and U87); test: WST-8 viable cell assay; format: cell-based, human; conditions: 5-50 μM, compared with DMSO, FIGS. 9, 10A
Method: In this example, 4 types of glioblastoma cell line (A172, T98G, U251, and U87 purchased from American Type Culture Collection [ATCC, Manassas, Va.]) and human embryonic kidney cells HEK293 were used as subjects. The expression of GSK3β and the expression of its fractions that had undergone phosphorylation in these cell lines were analyzed in accordance with <Example 1>. Furthermore, the effects of a known GSK3β inhibitor (AR-A014418 or SB-216763) on the survival, proliferation, and apoptosis of tumor cells were analyzed in a manner similar to that in the case of colon cancer cells. […] Number of viable cells and apoptosis frequencies were measured over time. As controls, number of viable cells and apoptosis frequencies were also measured for cells that had been cultured after addition of the same amount of DMSO. In addition, unlike <Example 1>, a WST-8** assay kit (Cell Counting Kit-8, Wako, Osaka) and a microplate reader produced by Bio-Rad Laboratories, Inc. (Hercules, Calif.) were used for measurement of number of viable cells. Furthermore, regarding cell fractions during the proliferation phase, the number of cells incorporating bromodeoxy uridine (BrdU) was measured using a Cell Proliferation ELISA BrdU Kit (Roche, Panzberg, Germany), and then the influence of the GSK3β inhibitor (AR-A014418 or SB-216763) on the proliferation of tumor cells was analyzed.

HEK293 cells [5] = test: Apoptosis frequency; format: cell-based, human; conditions: compared with DMSO, FIG. 10B
Method: (§4) In this example, 4 types of glioblastoma cell line (A172, T98G, U251, and U87 purchased from American Type Culture Collection [ATCC, Manassas, Va.]) and human embryonic kidney cells HEK293 were used as subjects. The expression of GSK3β and the expression of its fractions that had undergone phosphorylation in these cell lines were analyzed in accordance with <Example 1>. Furthermore, the effects of a known GSK3β inhibitor (AR-A014418 or SB-216763) on the survival, proliferation, and apoptosis of tumor cells were analyzed in a manner similar to that in the case of colon cancer cells. Each cell line was cultured overnight and then cultured in medium to which AR-A014418 or SB-216763 dissolved in DMSO had been added to predetermined concentrations (5 μM, 10 μM, 25 μM or 40 μM, and 50 μM). Number of viable cells and apoptosis frequencies were measured over time. As controls, number of viable cells and apoptosis frequencies were also measured for cells that had been cultured after addition of the same amount of DMSO. In addition, unlike <Example 1>, a WST-8** assay kit (Cell Counting Kit-8, Wako, Osaka) and a microplate reader produced by Bio-Rad Laboratories, Inc. (Hercules, Calif.) were used for measurement of number of viable cells. Furthermore, regarding cell fractions during the proliferation phase, the number of cells incorporating bromodeoxy uridine (BrdU) was measured using a Cell Proliferation ELISA BrdU Kit (Roche, Panzberg, Germany), and then the influence of the GSK3β inhibitor (AR-A014418 or SB-216763) on the proliferation of tumor cells was analyzed.

[6] = test system: glioblastoma cell line (A172, T98G, U251, and U87); test: Apoptosis frequency; format: cell-based, human; conditions: glioblastoma cells; compared with DMSO; FIG. 10B
Method: as §4

[7] = test system: glioblastoma cell line (A172, T98G, U251, and U87); test: Cell Proliferation ELISA BrdU incorporation; format: cell-based, human; conditions: glioblastoma cells; FIG. 10C
Method: Each cell line was cultured overnight and then cultured in medium to which AR-A014418 or SB-216763 dissolved in DMSO had been added to predetermined concentrations (5 μM, 10 μM, 25 μM or 40 μM, and 50 μM). Number of viable cells and apoptosis frequencies were measured over time. As controls, number of viable cells and apoptosis frequencies were also measured for cells that had been cultured after addition of the same amount of DMSO. In addition, unlike <Example 1>, a WST-8** assay kit (Cell Counting Kit-8, Wako, Osaka) and a microplate reader produced by Bio-Rad Laboratories, Inc. (Hercules, Calif.) were used for measurement of number of viable cells. Furthermore, regarding cell fractions during the proliferation phase, the number of cells incorporating bromodeoxy uridine (BrdU) was measured using a Cell Proliferation ELISA BrdU Kit (Roche, Panzberg, Germany), and then the influence of the GSK3β inhibitor (AR-A014418 or SB-216763) on the proliferation of tumor cells was analyzed.

HEK293 cells [8] = test: Cellular senescence by x-gal staining; format: cell-based, human; conditions: 25 μM, 72 hours, compared with DMSO
Method: (§5) In accordance with <Example 1>, each colon cancer cell line (SW480 and HCT116) and a non-cancer cell line (human embryonic kidney cells HEK293) were treated with a 25 μM GSK3β inhibitor (AR-A014418 or SB-216763) or GSK3β-specific RNA interference. As controls, DMSO was administered to these cells or the cells were treated with non-specific RNA interference. Subsequently, the frequency of senescent cells in control cells was compared with that in the corresponding cells in which GSK3β had been inhibited and then the result was analyzed. Furthermore, human telomerase reverse transcriptase (hTERT) mRNA expression that is a molecular indication of cell immortalization and changes in telomerase activity in these cells were compared and analyzed over time. Senescent cells were determined as cells found to be positive for x-gal staining that is an indicator of (3-galactosidase activity. Practically, for this staining, cells cultured on cover glasses were washed with phosphate buffered saline (PBS) and then fixed using a citrate.phosphate fixation solution (0.1 M citric acid, 0.2 M Na2HPO4, pH 6.0) at room temperature for 5 minutes. Subsequently, cells were washed twice with PBS and then caused to react using a x-gal staining solution (1 mg/mL x-gal [Sigma-Aldrich], 5 mM K3Fe[CN]6, 2 mM MgCl2, 150 mM NaCl, 30 mM citrate.phosphate buffer, and 5 mM K4Fe[CN]6) at 37° C. for 20 hours. Stained cells were washed with PBS and then fixed again with 4% paraformaldehyde. X-gal staining positive cells were identified by observation under a light microscope. The frequency of senescent cells was determined by observing 5 high-power fields and measuring and calculating the average frequency of x-gal staining positive cells in the total number of cells (approximately 100 cells) in each field.

[9] = test system: colon cancer cell line (SW480 and HCT116); test: Cellular senescence by x-gal staining; format: cell-based, human; conditions: colon cancer cell lines; 25 μM; 72 hours; compared with DMSO; FIGS. 11 and 12
Method: as §5

[10] = test system: human telomerase reverse transcriptase (hTERT) in HEK293 cells; test: hTERT mRNA expression by RT-PCR; format: cell-based; conditions: 25 μM inhibitor, FIG. 13
Method: (§6) In accordance with <Example 1>, each colon cancer cell line (SW480 and HCT116) and a non-cancer cell line (human embryonic kidney cells HEK293) were treated with a 25 μM GSK3β inhibitor (AR-A014418 or SB-216763) or GSK3β-specific RNA interference. As controls, DMSO was administered to these cells or the cells were treated with non-specific RNA interference. Subsequently, the frequency of senescent cells in control cells was compared with that in the corresponding cells in which GSK3β had been inhibited and then the result was analyzed. Furthermore, human telomerase reverse transcriptase (hTERT) mRNA expression that is a molecular indication of cell immortalization and changes in telomerase activity in these cells were compared and analyzed over time.
(§7) hTERT mRNA expression was analyzed by extracting total RNA from subject cells and then performing the RT-PCR method. An upstream primer (5′-[…]-3′: SEQ ID NO: 3) and a downstream primer (5′-GGATGAAGCGGAGTCTGGA-3′: SEQ ID NO: 4) were used for RT-PCR. The hTERT gene was amplified by performing 36 or 38 cycles of an RT-PCR program (15 seconds at 94° C., 10 seconds at 55° C., and 9 seconds at 72° C.). Telomerase activity was detected in accordance with recommended protocols using a commercial kit (TRAPEZE® Telomerase Detection Kit, Chemicon International). hTERT expression levels and telomerase activity in GSK3β-inhibited cells and control cells were determined via measurement and quantification of signals on electrophoresis using a densitometer (NIH Image Software), followed by comparison and analysis thereof.

[11] = test system: human telomerase reverse transcriptase (hTERT) in colon cancer cell lines (SW480 and HCT116); test: hTERT mRNA expression by RT-PCR; format: cell-based; conditions: 25 μM inhibitor, 72 or 96 hours, FIG. 13
Method: as §6, §7

[12] = test system: telomerase activity in HEK293 cells; test: Telomerase activity (TRAPEZE Telomerase Detection Kit); format: cell-based, human; conditions: 25 μM inhibitor, FIG. 14
Method: as §6, §7

[13] = test system: telomerase activity in colon cancer cell lines (SW480 and HCT116); test: as above; format: cell-based, human; conditions: 25 μM inhibitor, 72 or 96 hours, FIG. 14
Method: as §6, §7

[14] = target: GSK3β immunoprecipitated from colon cancer cell lines (SW480 and HCT116) (Homo sapiens, UniProt P49841); test: Non-radioisotopic in vitro GSK3β enzyme activity assay; format: biochemical; conditions: 25 μM, compared with DMSO, FIG. 19
Sequence of GSK3β immunoprecipitated from colon cancer cell lines (SW480 and HCT116) (P49841 whole entry): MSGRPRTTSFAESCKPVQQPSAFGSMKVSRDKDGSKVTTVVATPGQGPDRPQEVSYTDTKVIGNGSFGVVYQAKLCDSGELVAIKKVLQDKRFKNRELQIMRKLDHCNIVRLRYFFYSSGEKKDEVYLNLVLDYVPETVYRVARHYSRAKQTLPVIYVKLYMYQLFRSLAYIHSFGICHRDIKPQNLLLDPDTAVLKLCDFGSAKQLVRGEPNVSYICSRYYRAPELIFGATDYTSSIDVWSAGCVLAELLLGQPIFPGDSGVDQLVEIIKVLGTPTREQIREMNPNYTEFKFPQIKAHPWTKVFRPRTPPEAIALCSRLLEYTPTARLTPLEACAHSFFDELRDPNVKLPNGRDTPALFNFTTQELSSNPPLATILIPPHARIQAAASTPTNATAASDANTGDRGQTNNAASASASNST
Method: First, a specific anti-GSK3β antibody and beads (resins) are added to a cell extract and then the GSK3β protein is immunoprecipitated (S in FIG. 16). As a negative control (control), non-specific mouse IgG with the same concentration is added to the same type of cell extract (C in FIG. 16). Next, in the presence of a kinase buffer, a recombinant human β-catenin protein (substrate) and nonradioactive ATP (P in FIG. 16) are added, and then a phosphorylation reaction is performed. Subsequently, the reaction solution is analyzed by the Western blot method. A phosphorylated human β-catenin protein is detected using an anti-phosphorylate β-catenin peptides antibody. […] In accordance with the methods in <Example 1>, the protein was extracted from each cell line using a cell lysis buffer (0.2 M Tris-HCl pH 7.5, 1.5 M NaCl, 10 mM EDTA, 10 mM EGTA, 10% Triton X-100, 25 mM sodium pyrophosphate, 10 mM β-glyceophosphate, 10 mM Na3VO4, and Protease inhibitors cocktail [Sigma-Aldrich]). […] Next, GSK3β and the recombinant human β-catenin protein in the reaction solutions were similarly detected by the Western blot method. […] These reaction solutions were similarly analyzed by the Western blot method.

Structure (SMILES) | survival (rate) of cells [1] | effect to suppress cell survival (HEK293 cells [2]) | changes in apoptosis frequency (HEK293 cells [3]) | changes in cellular proliferation rates (PCNA labeling index) (HEK293 cells [3]) | cellular proliferation rates (PCNA labeling index) (colon cancer cells) | apoptosis frequency (colon cancer cells) | number of viable cells [4] | apoptosis (HEK293 cells [5]) | apoptosis [6] | proliferation (BrdU incorporated) [7] | frequency of senescent cells (x-gal staining positive) (HEK293 cells [8]) | frequencies of senescent cells (x-gal staining positive) [9] | hTERT expression [10] | hTERT expression [11] | telomerase activity [12] | telomerase activity [13] | GSK3β activity (phosphorylation of recombinant human β-catenin) [14]
Cn1cc(C2=C(c3ccc(Cl)cc3Cl)C(=O)NC2=O)c2ccccc21 [SB-216763, 3-(2,4-Dichlorophenyl)-4-(1-methyl-1H-indol-3-yl)-1H-pyrrole-2,5-dione] | decreased in a manner depending on the dose | not observed | minimal | minimal | lowered | increased | decreased in a manner depending on the concentration of each inhibitor | mildly induced by the addition of the GSK3β inhibitor to the medium, but no significant differences were observed | significantly induced | suppressed | no significant differences | significantly increased | neither changes in hTERT expression | suppressed | nor suppression of telomerase activity | suppressed | completely inhibited
COc1ccc(CNC(=O)Nc2ncc([N+](=O)[O-])s2)cc1 [AR-A014418, N-(4-methoxybenzyl)-N′-(5-nitro-1,3-thiazol-2-yl)urea] | decreased in a manner depending on the dose | not observed | minimal | minimal | lowered | increased | decreased in a manner depending on the concentration of each inhibitor | mildly induced by the addition of the GSK3β inhibitor to the medium, but no significant differences were observed | significantly induced | suppressed | no significant differences | significantly increased | neither changes in hTERT expression | suppressed | nor suppression of telomerase activity | suppressed | completely inhibited
